{
  "source": "paper PMC3310290",
  "about": "(Bioconjugate Chemistry, 2012)",
  "key": {"fibrin [1]": {"biological_target": "T1, fibrin (Homo sapiens, UniProt P02671+P02675+P02679)", "T1 sequence (P02671 36-866 limits assumed)": "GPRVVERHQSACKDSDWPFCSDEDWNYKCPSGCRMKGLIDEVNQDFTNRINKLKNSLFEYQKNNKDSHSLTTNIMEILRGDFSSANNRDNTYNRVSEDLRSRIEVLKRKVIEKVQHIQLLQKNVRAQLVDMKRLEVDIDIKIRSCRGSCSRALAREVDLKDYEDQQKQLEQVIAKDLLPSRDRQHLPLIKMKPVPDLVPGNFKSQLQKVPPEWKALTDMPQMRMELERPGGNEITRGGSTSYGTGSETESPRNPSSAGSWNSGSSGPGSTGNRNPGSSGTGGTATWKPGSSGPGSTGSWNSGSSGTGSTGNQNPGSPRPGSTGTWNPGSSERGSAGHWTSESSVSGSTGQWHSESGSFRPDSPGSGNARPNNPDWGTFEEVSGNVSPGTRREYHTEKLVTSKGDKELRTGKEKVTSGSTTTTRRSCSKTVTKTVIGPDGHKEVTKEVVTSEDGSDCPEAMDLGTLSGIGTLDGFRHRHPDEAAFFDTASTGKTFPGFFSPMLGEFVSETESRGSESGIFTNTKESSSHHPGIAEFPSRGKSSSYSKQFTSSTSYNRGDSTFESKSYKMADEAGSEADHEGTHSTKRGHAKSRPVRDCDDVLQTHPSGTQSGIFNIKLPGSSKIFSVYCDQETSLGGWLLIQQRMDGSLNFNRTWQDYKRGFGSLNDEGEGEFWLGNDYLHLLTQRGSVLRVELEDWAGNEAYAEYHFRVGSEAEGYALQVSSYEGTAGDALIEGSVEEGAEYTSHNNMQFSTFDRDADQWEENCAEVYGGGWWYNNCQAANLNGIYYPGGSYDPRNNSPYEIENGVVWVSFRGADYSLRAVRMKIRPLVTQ", "T1 sequence (P02675 45-491 limits assumed)": "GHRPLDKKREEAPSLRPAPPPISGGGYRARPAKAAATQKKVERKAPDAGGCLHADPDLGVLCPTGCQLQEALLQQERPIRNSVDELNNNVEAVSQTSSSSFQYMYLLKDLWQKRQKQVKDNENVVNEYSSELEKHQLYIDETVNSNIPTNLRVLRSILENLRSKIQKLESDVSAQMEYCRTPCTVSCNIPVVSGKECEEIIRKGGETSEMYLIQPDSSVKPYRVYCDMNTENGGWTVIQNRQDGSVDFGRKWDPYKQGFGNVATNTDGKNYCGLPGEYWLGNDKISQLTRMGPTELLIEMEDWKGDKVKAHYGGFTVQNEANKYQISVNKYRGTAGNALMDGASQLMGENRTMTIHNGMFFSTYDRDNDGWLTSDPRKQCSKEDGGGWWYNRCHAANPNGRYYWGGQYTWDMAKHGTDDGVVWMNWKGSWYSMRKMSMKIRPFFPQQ", "T1 sequence (P02679 27-433 limits assumed)": "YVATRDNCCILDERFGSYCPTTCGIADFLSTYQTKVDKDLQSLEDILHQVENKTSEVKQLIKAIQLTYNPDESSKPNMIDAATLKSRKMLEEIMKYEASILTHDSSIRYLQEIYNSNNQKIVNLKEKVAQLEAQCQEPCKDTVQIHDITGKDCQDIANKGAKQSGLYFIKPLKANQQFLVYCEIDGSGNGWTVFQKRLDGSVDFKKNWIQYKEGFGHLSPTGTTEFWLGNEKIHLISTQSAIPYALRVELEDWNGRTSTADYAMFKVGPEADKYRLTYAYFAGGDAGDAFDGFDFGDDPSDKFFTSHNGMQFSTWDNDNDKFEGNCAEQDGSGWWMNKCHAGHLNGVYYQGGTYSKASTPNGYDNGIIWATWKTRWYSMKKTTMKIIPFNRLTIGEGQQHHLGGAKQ", "assay": "Solvent water 1H relaxation rate", "assay_type": "physicochemical", "settings": "30 μM fibrin, 0.47T, 37°C"}, "fibrinogen": {"biological_target": "T2, fibrinogen (Homo sapiens, UniProt P02671+P02675+P02679)", "T2 sequence (P02671 20-629 limits assumed)": "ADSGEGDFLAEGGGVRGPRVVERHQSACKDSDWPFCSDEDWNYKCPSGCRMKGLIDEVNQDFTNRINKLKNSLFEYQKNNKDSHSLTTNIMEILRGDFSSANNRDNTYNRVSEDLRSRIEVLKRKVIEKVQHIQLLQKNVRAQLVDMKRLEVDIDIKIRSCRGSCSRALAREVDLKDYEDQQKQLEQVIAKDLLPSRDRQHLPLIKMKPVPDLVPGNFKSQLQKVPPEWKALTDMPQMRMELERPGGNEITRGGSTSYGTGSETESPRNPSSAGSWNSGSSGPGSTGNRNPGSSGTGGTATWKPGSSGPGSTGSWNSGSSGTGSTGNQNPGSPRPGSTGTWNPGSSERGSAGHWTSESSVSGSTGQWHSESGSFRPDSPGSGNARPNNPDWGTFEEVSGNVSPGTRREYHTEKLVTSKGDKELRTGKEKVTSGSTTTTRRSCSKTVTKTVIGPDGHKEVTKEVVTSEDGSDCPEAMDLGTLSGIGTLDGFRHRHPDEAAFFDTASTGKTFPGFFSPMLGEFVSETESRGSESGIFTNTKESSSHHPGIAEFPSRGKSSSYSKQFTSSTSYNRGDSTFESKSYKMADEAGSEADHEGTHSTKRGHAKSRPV", "T2 sequence (P02675 31-491)": "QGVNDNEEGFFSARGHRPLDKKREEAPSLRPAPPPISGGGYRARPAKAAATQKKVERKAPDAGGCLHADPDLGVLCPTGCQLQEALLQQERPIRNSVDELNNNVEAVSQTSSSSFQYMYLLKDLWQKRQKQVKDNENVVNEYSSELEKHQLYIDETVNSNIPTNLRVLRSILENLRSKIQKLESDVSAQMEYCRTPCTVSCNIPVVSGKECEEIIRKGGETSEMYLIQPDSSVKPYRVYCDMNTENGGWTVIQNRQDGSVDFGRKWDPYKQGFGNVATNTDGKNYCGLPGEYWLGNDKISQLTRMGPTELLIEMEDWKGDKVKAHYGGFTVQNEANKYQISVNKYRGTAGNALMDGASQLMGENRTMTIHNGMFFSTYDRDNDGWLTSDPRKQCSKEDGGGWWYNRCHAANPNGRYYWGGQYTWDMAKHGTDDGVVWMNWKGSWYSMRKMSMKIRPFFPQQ", "T2 sequence (P02679 27-433 limits assumed)": "T1 sequence (P02679 27-433 limits assumed)", "assay": "Fluorescence polarization, binding to fibrinogen", "settings": "fluorescence anisotropy"}, "fibrin [2]": {"biological_target": "T1, fibrin", "settings": "ref [15]; cited from earlier work"}},
  "note": "Positions of bridges follow the written chain, without caps; N, C: chain ends. Residues, ends and D or L forms follow the SMILES beside them. *: point of attachment. 5FAM = O=C1OC2(c3ccc(O)cc3Oc3cc(O)ccc32)c2ccc(C(=O)*)cc21; DTPA = O=C(O)CN(CCN(CC(=O)O)CC(=O)O)CCN(CC(=O)O)CC(=O)*; Ahx = NCCCCCC(=O)O",
  "data": [
    {"molecule": "O=C([O-])CN(CCN(CC(=O)[O-])CC(=O)O)CCN(CC(=O)[O-])CC(=O)O.[Gd+3]", "note": "[GdDTPA, diethylenetriaminepentaaceto gadolinium(III), reference compound]", "values": [
      {"measurement": "enhancement of 1/T1 in fibrin gel compared to buffer", "setting": "fibrin [1]", "result": "no enhancement of 1/T1"}
    ]},
    {"molecule": "CC[C@H](C)[C@H](NC(=O)[C@H](Cc1c[nH]c2ccccc12)NC(=O)[C@@H]1CSSC[C@H](NC(=O)[C@H](CCC(=O)O)NC(=O)[C@H](Cc2c[nH]c3ccccc23)NC(=O)[C@H](CCC(N)=O)NC(=O)CCCCCNC(=O)c2ccc3c(c2)C(=O)OC32c3ccc(O)cc3Oc3cc(O)ccc32)C(=O)N2CCC[C@H]2C(=O)N[C@@H](Cc2ccc(O)cc2)C(=O)NCC(=O)N[C@@H](CC(C)C)C(=O)N1)C(=O)N[C@@H](CCC(N)=O)C(N)=O", "note": "[Tn6-2b-Fl, Fluor-Aca-QWECPYGLCWIQ] ({5FAM-Ahx}-QWECPYGLCWIQ-NH2; disulfide 4-9)", "values": [
      {"measurement": "fibrinogen binding weaker than to DD(E)", "setting": "fibrinogen", "result": 400, "unit": "fold"}
    ]},
    {"molecule": "DTPA-GYLCGDYTLCPD-NH2 ({DTPA}-GYLCGDYTLCPD-NH2; not fully specified (bridges); cysteine pairing not given here)", "values": [
      {"measurement": "fibrin binding (in words)", "setting": "fibrin [2]", "result": "No measurable fibrin binding"}
    ]}
  ]
}
